Measurements published in patent US10392368B2, “Pyrazolo and triazolo bicyclic compounds as JAK kinase inhibitors” (THERAVANCE BIOPHARMA R&D IP, LLC, priority 2017, dated 2019).
Like-named read-outs stand apart in the source and are kept apart here.

Legend:
JAK1 = target: T1, JAK1 (Homo sapiens, UniProt P23458); test: Biochemical JAK1 kinase assay (LanthaScreen); settings: for Ki: read-out: JAK 1 (pKi) (converted)
T1 construct: GST; purchased Life Technologies
Outline: (§1)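 GST-tagged JAK enzyme and GFP-STAT1 peptide preincubated with compound 1 h, then ATP added; 1 h kinase reaction at ambient temperature, pH 7.5 HEPES/MgCl2 buffer, 1% DMSO. Tb-anti-pSTAT1 (pTyr701) TR-FRET, 520/495 nm ratio; IC50 from 4-parameter fit, converted to pKi via Cheng-Prusoff.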

JAK2 = target: T2, JAK2 (Homo sapiens, UniProt O60674); test: Biochemical JAK2 kinase assay (LanthaScreen); settings: for Ki: read-out: JAK 2 (pKi) (converted)
T2 construct: GST; purchased Life Technologies
T2 sequence (O60674 whole entry): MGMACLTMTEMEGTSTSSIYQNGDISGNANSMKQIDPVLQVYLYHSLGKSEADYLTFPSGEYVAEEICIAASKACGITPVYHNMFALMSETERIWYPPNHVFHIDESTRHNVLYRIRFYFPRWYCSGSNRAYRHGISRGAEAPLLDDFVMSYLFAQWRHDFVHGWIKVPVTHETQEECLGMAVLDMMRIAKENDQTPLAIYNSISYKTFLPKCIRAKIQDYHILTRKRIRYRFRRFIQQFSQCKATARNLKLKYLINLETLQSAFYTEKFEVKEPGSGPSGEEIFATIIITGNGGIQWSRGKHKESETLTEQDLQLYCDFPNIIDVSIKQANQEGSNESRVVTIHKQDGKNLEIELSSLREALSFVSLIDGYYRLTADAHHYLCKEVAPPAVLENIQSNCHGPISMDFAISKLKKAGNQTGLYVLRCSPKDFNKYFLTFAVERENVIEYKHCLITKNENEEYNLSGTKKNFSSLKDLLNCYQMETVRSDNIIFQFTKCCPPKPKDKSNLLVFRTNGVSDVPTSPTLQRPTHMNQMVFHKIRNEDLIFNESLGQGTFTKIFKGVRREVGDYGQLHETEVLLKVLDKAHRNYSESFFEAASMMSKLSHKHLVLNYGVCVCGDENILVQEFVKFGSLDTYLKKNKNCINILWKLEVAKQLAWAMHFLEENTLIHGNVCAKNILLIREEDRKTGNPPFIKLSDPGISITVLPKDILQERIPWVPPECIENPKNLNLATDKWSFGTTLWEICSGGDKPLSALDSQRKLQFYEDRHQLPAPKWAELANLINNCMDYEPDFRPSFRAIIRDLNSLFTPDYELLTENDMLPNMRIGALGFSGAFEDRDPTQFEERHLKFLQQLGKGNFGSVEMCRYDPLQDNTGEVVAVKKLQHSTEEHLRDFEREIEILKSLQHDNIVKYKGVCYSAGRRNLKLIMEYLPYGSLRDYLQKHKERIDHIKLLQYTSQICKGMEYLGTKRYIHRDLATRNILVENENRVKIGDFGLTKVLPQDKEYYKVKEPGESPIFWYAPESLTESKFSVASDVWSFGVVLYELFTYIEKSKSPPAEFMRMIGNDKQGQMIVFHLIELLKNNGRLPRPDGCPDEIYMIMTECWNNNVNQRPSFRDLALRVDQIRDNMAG
Outline: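 pKi values derive from pIC50 via Cheng-Prusoff, with IC50 from a 4-parameter fit of percent-inhibition TR-FRET data using Tb-anti-pSTAT1 (pTyr701) detection. Compound, GST-JAK2 and GFP-STAT1 substrate were pre-incubated 1 h, then ATP started a 1 h ambient reaction (HEPES pH 7.5, 10 mM MgCl2, 1% DMSO).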

Tyk2 = target: T3, Tyk2 (Homo sapiens, UniProt P29597); test: Biochemical Tyk2 kinase assay (LanthaScreen); settings: for Ki: read-out: Tyk 2 (pKi) (converted)
T3 construct: GST; purchased Life Technologies
T3 sequence (P29597 whole entry): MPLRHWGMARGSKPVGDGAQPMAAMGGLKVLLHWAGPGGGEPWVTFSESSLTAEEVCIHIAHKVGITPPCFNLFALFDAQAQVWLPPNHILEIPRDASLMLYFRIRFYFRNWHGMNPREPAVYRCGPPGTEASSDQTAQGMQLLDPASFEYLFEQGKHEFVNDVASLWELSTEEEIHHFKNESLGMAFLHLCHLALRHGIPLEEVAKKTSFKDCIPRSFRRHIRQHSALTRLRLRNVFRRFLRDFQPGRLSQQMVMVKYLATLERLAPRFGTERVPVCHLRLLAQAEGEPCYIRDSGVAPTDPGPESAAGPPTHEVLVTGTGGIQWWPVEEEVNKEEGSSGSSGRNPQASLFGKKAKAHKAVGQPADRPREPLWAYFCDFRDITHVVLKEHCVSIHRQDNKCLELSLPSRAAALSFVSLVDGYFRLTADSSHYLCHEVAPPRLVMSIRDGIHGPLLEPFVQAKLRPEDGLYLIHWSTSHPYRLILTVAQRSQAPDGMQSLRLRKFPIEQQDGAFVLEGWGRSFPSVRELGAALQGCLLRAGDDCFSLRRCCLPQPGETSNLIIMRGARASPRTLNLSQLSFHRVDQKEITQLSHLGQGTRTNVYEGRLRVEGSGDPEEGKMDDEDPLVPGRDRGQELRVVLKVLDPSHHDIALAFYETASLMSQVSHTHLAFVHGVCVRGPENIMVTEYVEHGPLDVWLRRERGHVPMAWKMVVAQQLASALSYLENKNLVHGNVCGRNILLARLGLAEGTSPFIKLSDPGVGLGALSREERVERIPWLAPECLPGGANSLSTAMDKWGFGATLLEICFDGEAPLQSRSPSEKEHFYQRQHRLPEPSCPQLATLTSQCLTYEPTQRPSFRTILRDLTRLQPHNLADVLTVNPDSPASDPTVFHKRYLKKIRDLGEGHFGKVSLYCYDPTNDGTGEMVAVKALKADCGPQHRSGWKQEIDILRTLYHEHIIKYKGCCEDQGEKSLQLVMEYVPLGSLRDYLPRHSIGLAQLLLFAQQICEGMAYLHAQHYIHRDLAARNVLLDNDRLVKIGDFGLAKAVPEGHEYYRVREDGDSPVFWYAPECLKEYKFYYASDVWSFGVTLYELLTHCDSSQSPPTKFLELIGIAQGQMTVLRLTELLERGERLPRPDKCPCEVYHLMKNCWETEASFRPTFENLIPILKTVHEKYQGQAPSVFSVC
Outline: as §1

[1] = system: IL-2 stimulated pSTAT5 in Tall-1 T cells; test: Cellular JAK3 potency assay: inhibition of IL-2 stimulated pSTAT5 in Tall-1 T cells; type: cell-based, human; settings: for IC50: Homo sapiens, read-out: Tall-1 (pIC50) (converted)
Outline: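 Inhibition of IL-2-induced pSTAT5 was quantified by AlphaLisa in Tall-1 cell lysates. Compound exposure lasted 1 h before 30 min stimulation with 300 ng/ml IL-2 final.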

JAK3 = target: T4, JAK3 (Homo sapiens, UniProt P52333); test: Biochemical JAK3 kinase assay (LanthaScreen); set-up: GST; purchased Life Technologies; settings: for Ki: read-out: JAK 3 (pKi) (converted)
T4 sequence (P52333 1-1124): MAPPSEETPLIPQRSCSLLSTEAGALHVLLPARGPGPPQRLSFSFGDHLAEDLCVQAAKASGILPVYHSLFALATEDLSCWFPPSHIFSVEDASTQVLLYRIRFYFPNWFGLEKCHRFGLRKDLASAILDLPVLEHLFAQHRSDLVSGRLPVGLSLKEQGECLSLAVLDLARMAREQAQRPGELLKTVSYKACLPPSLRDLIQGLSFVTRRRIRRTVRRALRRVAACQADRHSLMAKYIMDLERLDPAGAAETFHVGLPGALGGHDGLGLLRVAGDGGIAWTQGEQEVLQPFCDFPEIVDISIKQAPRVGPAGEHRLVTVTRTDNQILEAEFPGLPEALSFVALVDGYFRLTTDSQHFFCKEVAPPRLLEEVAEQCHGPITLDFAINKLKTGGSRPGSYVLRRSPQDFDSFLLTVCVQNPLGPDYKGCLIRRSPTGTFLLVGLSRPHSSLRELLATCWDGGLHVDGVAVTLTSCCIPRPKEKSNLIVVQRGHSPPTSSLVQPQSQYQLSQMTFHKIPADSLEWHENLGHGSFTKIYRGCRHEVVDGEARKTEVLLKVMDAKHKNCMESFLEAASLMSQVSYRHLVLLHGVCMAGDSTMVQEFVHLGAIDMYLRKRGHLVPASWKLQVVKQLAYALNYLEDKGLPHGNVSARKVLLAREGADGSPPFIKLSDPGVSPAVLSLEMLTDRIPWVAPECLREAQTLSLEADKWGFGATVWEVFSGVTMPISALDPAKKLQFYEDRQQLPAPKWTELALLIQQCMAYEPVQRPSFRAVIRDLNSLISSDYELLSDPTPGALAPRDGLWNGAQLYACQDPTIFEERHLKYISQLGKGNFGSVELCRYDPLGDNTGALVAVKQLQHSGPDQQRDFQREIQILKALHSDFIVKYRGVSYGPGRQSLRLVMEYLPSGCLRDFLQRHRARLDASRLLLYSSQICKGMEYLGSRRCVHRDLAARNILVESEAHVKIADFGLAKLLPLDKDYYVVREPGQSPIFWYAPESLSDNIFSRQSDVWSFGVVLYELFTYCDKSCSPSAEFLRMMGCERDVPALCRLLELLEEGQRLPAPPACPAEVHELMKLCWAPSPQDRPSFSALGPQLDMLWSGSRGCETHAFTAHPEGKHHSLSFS
Outline: as §1

[2] = IL-2 stimulated pSTAT5, Tall-1 T cells
[3] = selectivity JAK3 over JAK1, difference of pKi
[4] = TALL-1, IL-2 stimulated pSTAT5 in Tall-1 T cells
[5] = selectivity: difference of pKi JAK3 and pKi JAK1
[6] = TALL-1, IL-2 stimulated pSTAT5, Tall-1 T cells
[7] = IL-2 stimulated pSTAT5 in Tall-1 T cells

T1 sequence (P23458 whole entry): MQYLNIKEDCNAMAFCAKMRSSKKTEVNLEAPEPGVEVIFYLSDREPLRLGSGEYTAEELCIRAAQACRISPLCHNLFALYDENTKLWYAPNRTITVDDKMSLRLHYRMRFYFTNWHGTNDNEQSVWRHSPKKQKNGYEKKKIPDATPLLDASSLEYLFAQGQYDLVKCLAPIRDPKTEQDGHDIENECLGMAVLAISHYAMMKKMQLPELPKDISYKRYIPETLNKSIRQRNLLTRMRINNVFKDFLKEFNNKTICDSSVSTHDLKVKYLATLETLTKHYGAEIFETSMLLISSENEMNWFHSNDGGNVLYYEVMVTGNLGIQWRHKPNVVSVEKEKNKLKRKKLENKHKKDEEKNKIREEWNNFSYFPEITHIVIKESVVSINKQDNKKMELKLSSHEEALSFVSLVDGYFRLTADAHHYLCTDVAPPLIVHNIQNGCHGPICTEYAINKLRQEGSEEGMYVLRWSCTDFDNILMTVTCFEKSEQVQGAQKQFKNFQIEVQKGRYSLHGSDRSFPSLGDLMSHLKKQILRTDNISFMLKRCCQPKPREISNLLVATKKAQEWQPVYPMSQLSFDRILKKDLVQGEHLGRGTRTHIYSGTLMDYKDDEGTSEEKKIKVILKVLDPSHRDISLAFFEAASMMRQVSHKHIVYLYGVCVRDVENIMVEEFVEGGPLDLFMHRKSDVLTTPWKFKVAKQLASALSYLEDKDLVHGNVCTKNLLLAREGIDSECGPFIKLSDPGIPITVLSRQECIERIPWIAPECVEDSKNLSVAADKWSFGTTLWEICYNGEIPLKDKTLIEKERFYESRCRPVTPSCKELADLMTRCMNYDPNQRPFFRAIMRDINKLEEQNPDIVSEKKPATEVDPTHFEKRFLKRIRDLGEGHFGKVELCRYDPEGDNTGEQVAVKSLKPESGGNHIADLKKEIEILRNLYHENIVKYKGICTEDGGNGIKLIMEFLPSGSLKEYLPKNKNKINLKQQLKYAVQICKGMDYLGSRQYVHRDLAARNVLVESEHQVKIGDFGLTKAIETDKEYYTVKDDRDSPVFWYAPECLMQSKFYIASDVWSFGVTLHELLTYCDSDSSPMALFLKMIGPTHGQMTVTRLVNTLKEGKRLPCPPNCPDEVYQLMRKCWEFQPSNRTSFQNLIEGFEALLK

| SMILES | JAK 1 (pKi) (JAK1) | JAK 2 (pKi) (JAK2) | Tyk 2 (pKi) (Tyk2) | Tall-1 (pIC50) [1, 2] | JAK 3 (pKi) (JAK3) | JAK3 (pKi)-JAK1 (pKi) (JAK3; [3]) | Ki (JAK1) | Ki (JAK2) | Ki (Tyk2) | IC50 [1, 4] | Ki (JAK3) | JAK3 (pKi)-JAK1 (pKi) (JAK3; [5]) | IC50 [1, 6] | Tall-1 (pIC50) [1, 7] |
| --- | --- | --- | --- | --- | --- | --- | --- | --- | --- | --- | --- | --- | --- | --- |
| CN(C)C/C=C/C(=O)N1CC(CSc2cc(-c3ccc(O)c(F)c3)cc3[nH]ncc23)C1 [Compound 13-5] | E (a pKi value of 7 or below (Ki of 100 nM or above)) | D (a pKi value between 7 and 8 (Ki between 100 nM and 10 nM)) | E (a pKi value of 7 or below (Ki of 100 nM or above)) | B (a pIC50 value between 6.7 (included) and 7.5 (IC50 between 200 nM and 32 nM)) | A (a pKi value≥10 (Ki≤0.1 nM)) | A (a value of 3 or above) | – | – | – | – | – | – | – | – |
| C=CC(=O)N1CC[C@H](S(=O)(=O)c2cc(-c3ccc(O)cc3)cc3[nH]ncc23)C1 [Compound 13] | – | – | – | – | – | – | > 0.1 µM | > 0.1 µM | > 0.1 µM | 0.0316 to 0.2 µM | < 0.0001 µM | A (a value of 3 or above) | – | – |
| CN(C)C/C=C/C(=O)N1CCC(C)(Oc2cc(-c3ccc(O)c(Cl)c3)cc3[nH]ncc23)CC1 [Compound 6-4] | – | – | – | – | – | A (a value of 3 or above) | > 0.1 µM | 0.01 to 0.1 µM | > 0.1 µM | – | < 0.0001 µM | – | 0.0316 to 0.2 µM | – |
| C=CC(=O)N1CC(F)(C(=O)Nc2cc(-c3ccc(O)cc3)cc3[nH]ncc23)C1 [Compound 12-48] | – | – | – | – | – | A (a value of 3 or above) | > 0.1 µM | > 0.1 µM | > 0.1 µM | – | 0.0001 to 0.001 µM | – | < 0.0316 µM | – |
| CN(C)C/C=C/C(=O)N1CC(F)(COc2cc(-c3ccc(O)cc3)cc3[nH]ncc23)C1 [Compound 3-5] | D (a pKi value between 7 and 8 (Ki between 100 nM and 10 nM)) | D (a pKi value between 7 and 8 (Ki between 100 nM and 10 nM)) | E (a pKi value of 7 or below (Ki of 100 nM or above)) | – | B (a pKi value between 9 and 10 (Ki between 1 nM and 0.1 nM)) | – | – | – | – | – | – | B (a value of 2.3 to 3) | – | A (a pIC50 value≥7.5 (IC50≤32 nM)) |
| C=CC(=O)N1CCC(C)(Oc2cc(-c3ccc(O)cc3Cl)cc3[nH]ncc23)C1 (stereo not drawn) [Compound 13-14] | E (a pKi value of 7 or below (Ki of 100 nM or above)) | D (a pKi value between 7 and 8 (Ki between 100 nM and 10 nM)) | E (a pKi value of 7 or below (Ki of 100 nM or above)) | A (a pIC50 value≥7.5 (IC50≤32 nM)) | A (a pKi value≥10 (Ki≤0.1 nM)) | A (a value of 3 or above) | – | – | – | – | – | – | – | – |
| C=CC(=O)N1CC(F)(COc2cc(-c3ccc(O)c(F)c3)cc3[nH]ncc23)C1 [Compound 3-41] | – | – | – | – | – | – | 0.0001 to 0.001 µM | 0.001 to 0.01 µM | > 0.1 µM | < 0.0316 µM | 0.0001 to 0.001 µM | B (a value of 2.3 to 3) | – | – |
| C=CC(=O)N1CC2(CCC2Oc2nc(-c3ccc(O)cc3)nc3[nH]ncc23)C1 (stereo not drawn) [Compound 13-16] | E (a pKi value of 7 or below (Ki of 100 nM or above)) | E (a pKi value of 7 or below (Ki of 100 nM or above)) | E (a pKi value of 7 or below (Ki of 100 nM or above)) | B (a pIC50 value between 6.7 (included) and 7.5 (IC50 between 200 nM and 32 nM)) | B (a pKi value between 9 and 10 (Ki between 1 nM and 0.1 nM)) | A (a value of 3 or above) | – | – | – | – | – | – | – | – |
| CN(C)C/C=C/C(=O)N1CC(F)(COc2nc(-c3ccc(O)c(F)c3)cc3[nH]ncc23)C1 [Compound 3-48] | D (a pKi value between 7 and 8 (Ki between 100 nM and 10 nM)) | D (a pKi value between 7 and 8 (Ki between 100 nM and 10 nM)) | E (a pKi value of 7 or below (Ki of 100 nM or above)) | – | A (a pKi value≥10 (Ki≤0.1 nM)) | – | – | – | – | – | – | A (a value of 3 or above) | – | A (a pIC50 value≥7.5 (IC50≤32 nM)) |
| CN(C)C/C=C/C(=O)N1CC(CSc2cc(-c3ccc(O)c(Cl)c3)cc3[nH]ncc23)C1 [Compound 13-6] | E (a pKi value of 7 or below (Ki of 100 nM or above)) | E (a pKi value of 7 or below (Ki of 100 nM or above)) | E (a pKi value of 7 or below (Ki of 100 nM or above)) | A (a pIC50 value≥7.5 (IC50≤32 nM)) | A (a pKi value≥10 (Ki≤0.1 nM)) | A (a value of 3 or above) | – | – | – | – | – | – | – | – |
| C=CC(=O)N1CC(F)(COc2nc(-c3ccc(O)c(Cl)c3)cc3[nH]ncc23)C1 [Compound 3-47] | – | – | – | – | – | – | > 0.1 µM | 0.01 to 0.1 µM | > 0.1 µM | < 0.0316 µM | 0.0001 to 0.001 µM | B (a value of 2.3 to 3) | – | – |
| CN(C)C/C=C/C(=O)N1CC(F)(COc2cc(-c3ccc(O)c(Cl)c3)nc3[nH]ncc23)C1 [Compound 3-52] | E (a pKi value of 7 or below (Ki of 100 nM or above)) | E (a pKi value of 7 or below (Ki of 100 nM or above)) | E (a pKi value of 7 or below (Ki of 100 nM or above)) | – | B (a pKi value between 9 and 10 (Ki between 1 nM and 0.1 nM)) | – | – | – | – | – | – | A (a value of 3 or above) | – | B (a pIC50 value between 6.7 (included) and 7.5 (IC50 between 200 nM and 32 nM)) |
| C=CC(=O)N1CCCC(Oc2nc(-c3ccc(O)cc3)cc3[nH]ncc23)C1 (stereo not drawn) [Compound 8-7] | E (a pKi value of 7 or below (Ki of 100 nM or above)) | D (a pKi value between 7 and 8 (Ki between 100 nM and 10 nM)) | E (a pKi value of 7 or below (Ki of 100 nM or above)) | B (a pIC50 value between 6.7 (included) and 7.5 (IC50 between 200 nM and 32 nM)) | B (a pKi value between 9 and 10 (Ki between 1 nM and 0.1 nM)) | A (a value of 3 or above) | – | – | – | – | – | – | – | – |
